From ChEMBL document CHEMBL1201862, “PubChem BioAssay data set” (2004)
Calls of active or inactive are those of the source.

Columns and labels:
[1] = target: T1, Fructose-bisphosphate aldolase (Mycobacterium tuberculosis, UniProt P9WQA3); experiment: Fluorescence-based biochemical high throughput dose response assay for inhibitors of the fructose-bisphosphate aldolase (FBA) of M. tuberculosis.; format: functional
T1 sequence (P9WQA3 whole entry): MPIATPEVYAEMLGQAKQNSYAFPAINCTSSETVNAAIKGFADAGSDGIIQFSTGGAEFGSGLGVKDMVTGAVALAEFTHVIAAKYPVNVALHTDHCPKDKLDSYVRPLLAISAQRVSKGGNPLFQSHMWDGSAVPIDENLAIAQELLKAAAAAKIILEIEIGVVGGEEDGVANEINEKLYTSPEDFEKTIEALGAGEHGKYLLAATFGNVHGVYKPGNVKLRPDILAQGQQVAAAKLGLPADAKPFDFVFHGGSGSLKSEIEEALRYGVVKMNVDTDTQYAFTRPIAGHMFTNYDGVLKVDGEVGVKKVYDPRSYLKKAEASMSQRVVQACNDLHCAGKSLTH

[2] = growth suppression of beta-catenin-knockout colon cells, dose response, cell-based, HCT116, human colon tumor (AID 1045); format: functional;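 note: HCT116 colon tumor cells with beta catenin knocked out; cells exposed to compound for 60 hours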
[3] = growth suppression of PTEN-null colon cells, dose response, cell-based, HCT116 PTEN knockout (AID 1047); format: functional;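 note: HCT116 colon tumor cells with PTEN knocked out; cells exposed to compound for 60 hours before readout; potency for loss of cell viability measured by luminescence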
Major prion protein = Major prion protein (Homo sapiens, UniProt P04156); format: functional, cell-based
cells [4] = experiment: cells
cells [5] = format: functional, cell-based
cells [6] = format: functional, cell-based; remark: listed apart in the source
[7] = target: Disintegrin and metalloproteinase domain-containing protein 17 (Homo sapiens, UniProt P78536); experiment: ADAM17 protease inhibitors, dose response, counter-screen for ADAM10 exosite inhibitor project, biochemical, quenched FRET substrate (AID 743253)
[8] = ADAM10 inhibitors, peptide cleavage, dose response, biochemical, QFRET (AID 743254);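 note: ADAM10 enzyme with the DM2 quenched FRET peptide as substrate; EDANS fluorescence gain as the protease cuts the substrate; inhibitor potency against ADAM10 proteolytic activity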
[9] = target: T2, Small ubiquitin-related modifier 1 (Homo sapiens, UniProt P63165); experiment: inhibitors of SUMO1 peptide binding, dose response, biochemical, fluorescence polarization, uHTS hits (AID 624382); format: functional; conditions: read-out: IC50_Mean
[10] = target: T2, Small ubiquitin-related modifier 1; experiment: inhibitors of SUMO1 partner interactions, dose response, biochemical, FRET (AID 624383); format: functional; conditions: read-out: IC50_Mean
[11] = target: T3, Alkaline phosphatase, tissue-nonspecific isozyme (Homo sapiens, UniProt P05186); experiment: human TNAP enzyme inhibitors, SAR follow-up, biochemical, luminescent, dose response (AID 1056)
T3 sequence (P05186 whole entry): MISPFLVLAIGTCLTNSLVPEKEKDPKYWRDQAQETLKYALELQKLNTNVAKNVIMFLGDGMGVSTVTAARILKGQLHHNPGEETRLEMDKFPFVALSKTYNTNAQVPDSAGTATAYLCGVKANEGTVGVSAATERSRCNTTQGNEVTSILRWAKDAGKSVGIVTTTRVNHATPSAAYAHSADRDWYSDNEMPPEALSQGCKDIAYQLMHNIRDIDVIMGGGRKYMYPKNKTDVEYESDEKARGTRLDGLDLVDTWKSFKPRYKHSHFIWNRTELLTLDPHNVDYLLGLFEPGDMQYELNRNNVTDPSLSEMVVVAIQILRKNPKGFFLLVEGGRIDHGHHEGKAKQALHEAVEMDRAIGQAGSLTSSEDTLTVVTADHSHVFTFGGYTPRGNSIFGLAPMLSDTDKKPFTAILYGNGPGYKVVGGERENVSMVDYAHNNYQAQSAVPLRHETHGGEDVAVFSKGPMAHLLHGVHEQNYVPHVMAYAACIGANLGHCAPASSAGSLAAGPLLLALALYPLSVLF

[12] = target: Glyceraldehyde-3-phosphate dehydrogenase (Homo sapiens, UniProt P04406)
[13] = target: T4, Sentrin-specific protease 8 (Homo sapiens, UniProt Q96LD8); format: functional
T4 sequence (Q96LD8 whole entry): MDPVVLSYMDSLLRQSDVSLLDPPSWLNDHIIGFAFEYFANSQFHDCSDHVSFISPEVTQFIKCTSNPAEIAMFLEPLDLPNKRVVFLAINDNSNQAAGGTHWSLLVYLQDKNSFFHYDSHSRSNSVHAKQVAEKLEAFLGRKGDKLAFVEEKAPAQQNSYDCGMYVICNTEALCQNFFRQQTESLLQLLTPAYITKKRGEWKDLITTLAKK

[14] = target: T4, Sentrin-specific protease 8; format: functional; remark: listed apart in the source
[15] = Luminescence Cell-Based Dose Retest to Confirm Inhibitors of Cancer Stem Cells. [Related pubchem assays (depositor defined):AID2717, AID2721]; format: functional; conditions: Homo sapiens
[16] = target: T5, Sentrin-specific protease 6 (Homo sapiens, UniProt Q9GZR1); experiment: SAR Analysis of small molecule inhibitors of Sentrin-specific protease 6 (SENP6) using a Luminescent assay. [Related pubchem assays (depositor defined):AID2582, AID2599]; format: functional
T5 sequence (Q9GZR1 whole entry): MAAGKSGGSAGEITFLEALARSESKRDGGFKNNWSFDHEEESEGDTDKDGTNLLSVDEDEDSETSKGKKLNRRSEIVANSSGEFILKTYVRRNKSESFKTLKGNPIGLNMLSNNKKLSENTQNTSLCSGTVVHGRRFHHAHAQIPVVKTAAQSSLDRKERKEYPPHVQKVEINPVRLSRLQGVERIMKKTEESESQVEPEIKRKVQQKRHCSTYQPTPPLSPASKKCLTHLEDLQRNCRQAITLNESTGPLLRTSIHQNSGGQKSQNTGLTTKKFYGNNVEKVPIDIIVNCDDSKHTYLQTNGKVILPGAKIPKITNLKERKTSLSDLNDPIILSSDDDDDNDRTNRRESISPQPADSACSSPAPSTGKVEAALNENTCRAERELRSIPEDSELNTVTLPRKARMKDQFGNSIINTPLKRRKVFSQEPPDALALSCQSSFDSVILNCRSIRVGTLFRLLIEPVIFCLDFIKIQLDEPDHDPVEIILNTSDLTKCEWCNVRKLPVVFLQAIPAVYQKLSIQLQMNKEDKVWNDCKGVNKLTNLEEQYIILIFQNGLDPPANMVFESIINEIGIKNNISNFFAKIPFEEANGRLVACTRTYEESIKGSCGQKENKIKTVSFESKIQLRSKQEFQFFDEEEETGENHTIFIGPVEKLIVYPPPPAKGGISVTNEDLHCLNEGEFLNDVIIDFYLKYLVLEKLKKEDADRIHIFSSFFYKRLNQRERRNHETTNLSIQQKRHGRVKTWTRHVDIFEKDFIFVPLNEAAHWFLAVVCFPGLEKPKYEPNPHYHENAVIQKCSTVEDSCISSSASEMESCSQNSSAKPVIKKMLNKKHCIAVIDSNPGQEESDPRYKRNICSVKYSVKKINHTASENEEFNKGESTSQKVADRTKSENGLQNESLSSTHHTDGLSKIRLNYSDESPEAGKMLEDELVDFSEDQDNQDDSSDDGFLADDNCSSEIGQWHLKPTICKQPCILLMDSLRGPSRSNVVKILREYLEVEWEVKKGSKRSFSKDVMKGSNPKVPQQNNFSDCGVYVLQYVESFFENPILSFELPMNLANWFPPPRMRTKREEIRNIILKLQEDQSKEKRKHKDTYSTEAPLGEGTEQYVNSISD

Caspase-3 = target: T6, Caspase-3 (Homo sapiens, UniProt P42574); experiment: SAR Analysis of small molecule inhibitors of Sentrin-specific proteases (SENPs) using a Caspase-3 Selectivity assay. [Related pubchem assays (depositor defined):AID2540, AID2599, AID434973, AID489001]; format: functional
T6 sequence (P42574 whole entry): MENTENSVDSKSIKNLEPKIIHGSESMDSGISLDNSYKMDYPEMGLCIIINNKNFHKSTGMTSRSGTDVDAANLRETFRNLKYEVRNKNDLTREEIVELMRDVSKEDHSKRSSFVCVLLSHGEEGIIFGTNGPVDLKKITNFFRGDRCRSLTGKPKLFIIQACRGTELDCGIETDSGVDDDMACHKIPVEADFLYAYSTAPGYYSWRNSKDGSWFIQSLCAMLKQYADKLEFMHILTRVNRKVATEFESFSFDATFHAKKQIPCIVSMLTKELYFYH

[17] = target: T4, Sentrin-specific protease 8; experiment: SENP8 protease inhibitors, SAR follow-up, biochemical, luminescence (AID 504501); format: functional
[18] = target: T7, Low molecular weight phosphotyrosine protein phosphatase (Homo sapiens, UniProt P24666); format: functional; conditions: read-out: IC50_Mean;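 note: Dose-response confirmation assay measuring inhibition of LMPTP enzyme activity by fluorescence intensity read-out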
T7 sequence (P24666 whole entry): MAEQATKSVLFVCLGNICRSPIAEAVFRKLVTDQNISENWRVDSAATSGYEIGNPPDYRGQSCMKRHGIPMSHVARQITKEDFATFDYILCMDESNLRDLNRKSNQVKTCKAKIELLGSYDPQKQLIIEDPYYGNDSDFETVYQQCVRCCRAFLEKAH

[19] = non-specific cell cytotoxicity, dose response, cytotoxicity control for PAX8 inhibitor project, plate reader, dry powder samples (AID 743021); format: functional, cell-based
Paired box protein Pax-8 = Paired box protein Pax-8 (Homo sapiens, UniProt Q06710); experiment: inhibitors of PAX8-driven TPO luciferase reporter, dose response, RMG-I cells, cherry-pick (AID 687027); format: functional, cell-based;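 note: luciferase reporter driven by Pax8 target thyroperoxidase promoter measured by SteadyGlo luminescence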
[20] = target: T8, Nuclear receptor subfamily 0 group B member 1 (Homo sapiens, UniProt P51843); format: functional, cell-based;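 note: HEK293T cells transfected with SF-1 and DAX-1 plus StAR promoter luciferase reporter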
T8 sequence (P51843 whole entry): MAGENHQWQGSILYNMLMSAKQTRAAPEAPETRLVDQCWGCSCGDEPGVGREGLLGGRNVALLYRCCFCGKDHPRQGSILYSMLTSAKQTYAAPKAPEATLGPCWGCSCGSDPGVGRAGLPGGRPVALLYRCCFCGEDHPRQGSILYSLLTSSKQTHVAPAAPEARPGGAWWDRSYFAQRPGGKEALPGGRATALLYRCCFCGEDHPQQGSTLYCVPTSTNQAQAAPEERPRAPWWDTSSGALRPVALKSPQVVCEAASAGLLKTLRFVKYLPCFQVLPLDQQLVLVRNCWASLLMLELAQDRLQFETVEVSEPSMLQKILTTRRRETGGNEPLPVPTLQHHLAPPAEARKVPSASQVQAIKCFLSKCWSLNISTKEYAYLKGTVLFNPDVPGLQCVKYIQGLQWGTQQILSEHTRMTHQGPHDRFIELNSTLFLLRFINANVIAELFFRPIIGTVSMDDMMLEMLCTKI

H4 = experiment: Luminescence Cell-Based Dose Response HTS to Identify Activators of 5'UTR Stem-Loop Driven Prion Protein mRNA Translation in H4 Neuroglioblastoma Cells. [Related pubchem assays: 1829 (Project Summary), 1814 (Primary HTS)]; format: functional; conditions: Homo sapiens
cells [21] = format: functional, cell-based; remark: listed apart in the source

CCOC(=O)c1oc2cccc(OCC(O)CNC(C)C)c2c1C (configuration not stated)
IC50 [1]: 0.843 µM (active)
EC50 [2]: 47.7 µM (active)
EC50 [3]: 45.6 µM (active)

CCOC(=O)CSc1nc(CC)nc2ccccc12
IC50 (Major prion protein): 1.08 µM (active)
IC50 (cells [4]): > 138 µM (inactive)

Cc1ccc(-c2nc3ccccc3nc2NN)cc1
EC50 (cells [5]): > 350 µM (not active)
IC50 [1]: > 10 µM (inactive)
EC50 (cells [6]): 7.52 µM (active)

COc1ccc(-c2c[nH]nc2-c2ccc(OCc3ccccc3)cc2O)cc1OC
IC50 [7]: > 69.5 µM (inactive)
IC50 [8]: > 69.5 µM (inactive)

O=C(Nc1ccc2c(c1)C(=O)NC2=O)c1ccc2ncsc2c1
IC50 [9]: > 66.6 µM (inactive)
IC50 [10]: 8.45 µM (active)

COc1ccc(-c2nnc3oc(O)cc(C)c2-3)cc1
IC50 [1]: 1.88 µM (active)
IC50 [11]: 1.06 µM (active)
IC50 [12]: > 100 µM (not active)

CCOC(=O)c1ccc(N2C(=O)Cc3ccccc3C2=O)cc1
IC50 [13]: > 100 µM (inactive)
IC50 [14]: 12 µM (active)

Cc1cccc(OCCNC(=O)c2cccc(Oc3ccc(C(F)(F)F)cc3[N+](=O)[O-])c2)c1
IC50 [7]: > 69.5 µM (inactive)
AC50 [15]: 23.5 µM (active)
IC50 [8]: 27.5 µM (inactive)

CC(=O)c1ccc(-n2nnnc2SCC(=O)N2CCc3ccccc3C2)cc1
IC50 [13]: 10.2 µM (active)
IC50 [14]: 8.03 µM (active)

CC(=O)CSc1nc(O)c(C#N)c(-c2cccs2)n1
IC50 (cells [4]): > 138 µM (inactive)

COC(=O)c1ccc(NC(=O)c2ccc3c(c2)OCO3)cc1
IC50 [16]: > 99 µM (inactive)
IC50 (Caspase-3): 3.7 µM (active)
IC50 [17]: > 99 µM (inactive)

Cc1cc(N2CCN(C(C(=O)NC3CCCC3)c3ccc(-c4ccccc4)cc3)CC2)c2ccccc2n1 (configuration not stated)
IC50 [18]: 6.49 µM (active)

Cc1ccc(S(=O)(=O)Nc2ccc3c(c2)CC(=O)N([C@@H](C)CO)C[C@H](C)[C@@H](CN(C)C(=O)Nc2ccc(C(F)(F)F)cc2)O3)cc1
AC50 [19]: 43.1 µM (active)
AC50 (Paired box protein Pax-8): 30.4 µM (active)

O=C(/N=c1\nc2ccccn2s1)c1ccccc1
IC50 [20]: > 67.5 µM (inactive)
EC50 (H4): 5.73 µM (active)
IC50 (cells [21]): > 67.5 µM (inactive)
